Measured values taken from patent US12465614B2, “Budesonide 21-phosphate salts and pharmaceutical compositions containing the same” (GENETIC S.P.A., priority 2020, dated 2025).

Legend:
Format in all cases: in vivo
[1] = test system: mice with OVA-induced allergic asthma; test: BAL fluid cell counts, Bud vs Bud-21 P (Experimental Groups III)
Procedure: Male Balb/c SPF mice (25*2 g, 6-week-old) were purchased from the animal house facilities at the São Paulo School of Medicine (Federal University of São Paulo, Brazil). They were group-housed in a temperature-controlled room at 22° C. with a 12/12-hour light/dark cycle and allowed free access to food and water. The study is in agreement with the Ethical Principles for Animal Research established by the Brazilian College for Animal Experimentation (COBEA). According to the internal laboratory rules, euthanasia is performed if severe distress related to the test agents developed during the experiment.
In Protocol 3, the test compounds budesonide (Bud; MW: 430.53 g/mol) and budesonide 21-phosphate free acid (Bud-21 P; MW: 510.51 g/mol) were administered at equimolar doses of 3, 10 and 30 nmol/animal/day, equivalent to 1.3, 4.3 and 12.9 μg/animal/day of Bud, 1.5, 5.1 and 15.3 μg/animal/day of Bud-21 P, respectively. […]
After Penh evaluation, the mice were anesthetized with inhaled isofluorane (5% v/v in O2) and blood samples were collected from the descending abdominal aorta. […] Total cell counts were determined using a Neubauer chamber, and differential counting was carried out in cytospin (Fanem Mod 2400; São Paulo, Brazil) preparations stained with May-Grünwald dye. […]

IgE = test: Plasma IgE levels in OVA-sensitized mice, ELISA (Experimental Groups I); conditions: 1 mg/Kg i.p.; vs OVA group; FIG. 10 panel C
Procedure: Female Balb/c (8-week-old, Charles River, Calco, Italy) were housed in the animal care facility of the Department of Pharmacy of the University of Naples, Italy in a controlled environment (temperature 21±2° C. and humidity 60±10%) and provided with standard rodent chow and water. All animals were allowed to acclimate for four days prior to experiments and were subjected to 12 h light−12 h dark schedule. Experiments were conducted during the light phase. The experimental procedures were approved by the Italian Ministry according to International and National law and policies (EU Directive 2010/63/EU and Italian DL 26/2014 for animal experiments). […] The compounds were dissolved in DMSO (Sigma Chemical Co., St. Louis, MO) at concentrations at which the determined dose per animal results from the intraperitoneal administration of 100 μl of solution (1:10 DMSO) and intra-nasal (i.n.) administration of 10 μl/animal (5 μl/nostril) of the solutions. […] Plasma levels of IgE were measured as index of sensitization. […] Total IgE levels were measured by means of ELISA using matched antibody pairs (BD Biosciences Pharmingen San Jose, CA).

[2] = test system: mice with OVA-induced allergic asthma; test: BAL fluid cell counts (Experimental Groups II)
Procedure: Male Balb/c SPF mice (25*2 g, 6-week-old) were purchased from the animal house facilities at the São Paulo School of Medicine (Federal University of São Paulo, Brazil). They were group-housed in a temperature-controlled room at 22° C. with a 12/12-hour light/dark cycle and allowed free access to food and water. The study is in agreement with the Ethical Principles for Animal Research established by the Brazilian College for Animal Experimentation (COBEA). According to the internal laboratory rules, euthanasia is performed if severe distress related to the test agents developed during the experiment. […] The compounds were dissolved in DMSO (Sigma Chemical Co., St. Louis, MO) at concentrations at which the determined dose per animal results from the intraperitoneal administration of 100 μl of solution (1:10 DMSO) and intra-nasal (i.n.) administration of 10 μl/animal (5 μl/nostril) of the solutions. Mice were sensitized with two subcutaneous injections of 0.4 ml of OVA/Al(OH)3, with an interval of 7 days (Sham animals received the Al(OH)3 suspension in PBS with no OVA). Seven days after the second sensitization (i.e., 3rd week), the animals were nebulized twice a week with the 1% OVA solution (Sham and untreated OVA groups were nebulized with PBS) during 20 minutes for the next 2 weeks. Sixty minutes before the challenges (OVA nebulization) and daily during the next 4 weeks, mice were intra-nasally treated (10 μl/animal as 5 μl/nostril) with the respective compounds/vehicle. After Penh evaluation, the mice were anesthetized with inhaled isofluorane (5% v/v in O2) and blood samples were collected from the descending abdominal aorta. The mice were then euthanized by exsanguination (blood samples were collected from each animal for leukocyte cell counting), and bronchoalveolar lavage (BAL) was performed by exposing and cannulating the trachea with a polyethylene tube (1 mm outer diameter) connected to a syringe. The lungs were washed by flushing 300 μL of heparin-containing PBS solution (20 Ul/mL). The retrieved BAL lavage aliquots were obtained, and the same procedure was repeated four additional times. The samples were submitted to centrifugation (1000 g for 10 min) and the cell pellet was resuspended in 200 μL of PBS solution. Total cell counts were determined using a Neubauer chamber, and differential counting was carried out in cytospin (Fanem Mod 2400; São Paulo, Brazil) preparations stained with May-Grünwald dye. Leukocytes were classified based on normal morphological criteria.

SMILES	total BAL leukocytes compared with Sham ([1]; 3 nmol/animal/day i.n.)	BAL macrophages compared with Sham ([1]; 3 or 10 nmol/animal/day i.n.)	OVA induced increase of IgE plasma levels (IgE)	OVA-induced increase of BAL macrophages ([2]; 3 nmol/animal i.n.)	total leukocytes in BAL fluid ([2]; 3 nmol/animal i.n., vs untreated OVA group)	eosinophils in BAL samples ([2]; i.n., all treatments: FB 0.3, 1.0, 3.0 nmol/animal, F and B 3.0 nmol/animal)
CCCC1OC2CC3C4CCC5=CC(=O)C=CC5(C)C4C(O)CC3(C)C2(C(=O)CO)O1 (stereo not drawn) [Bud, 11β,21-dihydroxy-16α,17α-(butylidenebis(oxy))pregna-1,4-diene-3.20-dione]	still significantly higher than that observed in the Sham mice	still significantly higher than those observed in the Sham group				
CCCC1OC2CC3C4CCC5=CC(=O)C=CC5(C)C4C(O)CC3(C)C2(C(=O)COP(=O)(O)O)O1 (stereo not drawn) [B, Budesonide 21-phosphate]			significantly reduced OVA induced increase of IgE plasma levels	abolished the OVA-induced increase of BAL macrophages	significantly reduced	significantly controlled
